Data on 1 molecule can be found in ChEMBL document CHEMBL5543153, “Discovery of a Potent Dual Son of Sevenless 1 (SOS1) and Epidermal Growth Factor Receptor (EGFR) Inhibitor for the Treatment of Prostate Cancer” (J Med Chem, 2024).

Activity calls are given as the source filed them. The calls are words filed in the database; no cut-off is given here.

Data set [1] can be described thus: Toxicity in BALB/c mouse xenografted with human PC-3 cells assessed as spleen pathological change at 20 mg/kg,ip administrated once every 4 days for 24 days by hematoxylin and eosin staining based analysis. Format: organism-based. As to conditions: in vivo, 576 h, time 24 day.
Data set [2] deals with PC-3. The data set can be described thus: Antiproliferative activity against human PC-3 cells assessed as reduction in EdU-positive cells at 0.5 to 12.5 uM incubated for 48 hrs by EdU incorporation assay. Format: functional, cell-based. As to conditions: dose 0.5-12.5 µM.
Data set [3] relates to HUVEC. Put plainly: Antiangiogenic activity in HUVEC cells assessed as reduction of mean mesh at 0.5 to 12.5 uM incubated for 8 hrs by matrigel based microscopic analysis. Conditions: Homo sapiens, dose 0.5-12.5 µM. The data set is classed as functional, cell-based.
Data set [4] concerns PC-3. Put plainly: Induction of apoptosis in human PC-3 cells assessed as viable cells at 0.5 uM by Annexin V-FITC staining based flow cytometry (reference value: 94.9%). The data set is classed as functional. As to conditions: read-out: Activity. (In general: In flow cytometry, cells or beads pass a laser one at a time.)
Data set [5] has as its system HUVEC. Put plainly: Antiangiogenic activity in HUVEC cells assessed as reduction in tube segments at 0.5 to 12.5 uM incubated for 8 hrs by matrigel based microscopic analysis. Format: functional, cell-based. As to conditions: Homo sapiens, dose 0.5-12.5 µM.

In the case of `COc1cc2ncnc(N[C@H](C)c3cccc(F)c3)c2cc1OC1CCOCC1`, in data set [1], the Activity result is given as “Toxic”. The result in the data set with PC-3 [2], with HUVEC [3] and in the data set on HUVEC [5] was Active. For the same molecule, the viability at 0.5 µM in the data set on PC-3 [4] was determined as 84.9%.
